# Experimental data as given in PMC12061717, “Molecular characterization of a Minus-C odorant-binding protein from Cyrtotrachelus buqueti (Coleoptera: Curculionidae)” (Frontiers in Physiology, 2025).
# Like-named read-outs stand apart in the source and are kept apart here.
# Tests used:
# CbuqOBP1 [1] = target: T1, CbuqOBP1 (Cyrtotrachelus buqueti, UniProt A0A1L3KPS8); assay: Binding of fluorescent probe 1-NPN to CbuqOBP1 (titration, Scatchard plot); conditions: 2 μM protein titrated with 1-NPN 2 to 40 μM, read-out: K 1-NPN (dissociation constant of CbuqOBP1/1-NPN complex)
# Method: (§1) The fluorescence competition binding assays were carried out with a F-7000 fluorescence spectrophotometer (Hitachi, Tokyo, Japan) at room temperature using a 1 cm wide light-path fluorimeter quartz cuvette and 10 nm slits for both excitation and emission. The purified CbuqOBP1 was dissolved in 50 mM Tris–HCl buffer (pH 7.4) to a final concentration of 2 μM, while all ligands used in binding experiments were dissolved in chromatographic methanol to a final concentration of 1 mM.
# N-phenyl-1-naphthylamine (1-NPN) (Aladdin Biochemical Technology Co., LTD., Shanghai, China) was used as the fluorescent probe. The probe was excited at 337 nm and emission spectra were recorded between 350 and 550 nm. […] Assuming that 1-NPN binds to the protein at a 1:1 ratio and that the protein was 100% active, a Scatchard plot analysis of the binding data was performed to calculate the dissociation constant (K d) of CbuqOBP1 with 1-NPN.
# CbuqOBP1 [2] = target: T1, CbuqOBP1; assay: Fluorescence competition binding assay with 1-NPN as probe; conditions: for Ki: K i = [IC50]/(1 + [1-NPN]/K 1-NPN), CbuqOBP1 and 1-NPN both 2 μM, pH 7.4
# Method: as §1
# N-phenyl-1-naphthylamine (1-NPN) (Aladdin Biochemical Technology Co., LTD., Shanghai, China) was used as the fluorescent probe. The probe was excited at 337 nm and emission spectra were recorded between 350 and 550 nm.
# Based on the above studies, a total of nine candidate volatiles were selected as test ligands, including eight volatiles emitted by female adults of C. buqueti and the linalool released from the host plant N. affinis (Table 1). All these compounds were purchased from Aladdin Biochemical Technology Co., LTD. (Shanghai, China) with a purity of at least more than 90%. […] Binding data were collected as three independent measurements.
# C. buqueti adults = system: C. buqueti adults; set-up: method as in Cai, 2018; conditions: previous behavioral studies; ref Cai, 2018; cited from earlier work
# [3] = system: Bradysia odoriphaga (Diptera) adults; set-up: method as in Li L. et al., 2013; Chen et al., 2014; conditions: ref Li L. et al., 2013; Chen et al., 2014; cited from earlier work
# [4] = system: Xylotrechus rusticus (Coleoptera) adults; set-up: method as in Li L. et al., 2013; Chen et al., 2014; conditions: ref Li L. et al., 2013; Chen et al., 2014; cited from earlier work
# [5] = recombinant CbuqOBP1 and 1-NPN both 2 μM, 50 mM Tris-HCl pH 7.4, room temperature, read-out: IC50
# T1 sequence (A0A1L3KPS8 entry or part of it): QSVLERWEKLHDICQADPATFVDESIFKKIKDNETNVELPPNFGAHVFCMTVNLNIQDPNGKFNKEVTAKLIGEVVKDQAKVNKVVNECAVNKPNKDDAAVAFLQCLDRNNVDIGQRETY
smiles,measurement,setting,value
"c1ccc(Nc2cccc3ccccc23)cc1 [1-NPN, N-phenyl-1-naphthylamine]",Kd,CbuqOBP1 [1],24.2 µM
C=C(C)[C@H]1CC=C(C)CC1 [(+)-Limonene],IC50,CbuqOBP1 [2],18.8 µM
c1ccc2scnc2c1 [Benzothiazole],IC50,CbuqOBP1 [2],12 µM
same,attractant for adults,C. buqueti adults,efficient attractants
same,attractiveness to adults,[3],highly attractive
same,attractiveness to adults,[4],highly attractive
C[C@@H]1CC[C@H]2C(C)(C)[C@H]3C[C@@]12CC[C@@]3(C)O [Cedrol],IC50,CbuqOBP1 [2],40.3 µM
CCCCCC(=O)OCC [Ethyl hexanoate],Ki,CbuqOBP1 [2],19.5 µM
same,IC50,CbuqOBP1 [2]; [5],21 µM
C=CC(C)(O)CCC=C(C)C (stereo not shown) [Linalool],IC50,CbuqOBP1 [2],14.5 µM
Cc1cccc(C)c1 [M-xylene],IC50,CbuqOBP1 [2],36 µM
Oc1ccccc1 [Phenol],IC50,CbuqOBP1 [2],11.4 µM
same,attractant for adults,C. buqueti adults,efficient attractants
C=Cc1ccccc1 [Styrene],IC50,CbuqOBP1 [2],22.1 µM
"CCCC/C=C/C=C/C=O [trans,trans-2,4-Nonadienal]",Ki,CbuqOBP1 [2],22.4 µM
same,IC50,CbuqOBP1 [2]; [5],24.3 µM
